Several values for one entry are separate records, joined by “and”; a condition that tells them apart may be missing. Equal values may be shown once. Blank lines part the entries; values can stand above or below the substance they belong to. No end group written: not given here.
Assays:
[1] = biological target: T1, SH2 domain from the Grb4 adaptor protein (Mus musculus, UniProt O55033); conditions: tyrosine-phosphorylated state; read-out: Affinity for the SH2 domain from Grb4; cited from earlier work
T1 sequence (O55033 285-379 limits assumed): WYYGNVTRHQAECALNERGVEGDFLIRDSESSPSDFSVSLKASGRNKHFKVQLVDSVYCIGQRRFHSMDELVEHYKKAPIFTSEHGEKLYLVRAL

[2] = biological target: α-thrombin (Homo sapiens, UniProt P00734); test: Amidolytic assay of CaM-DTI and CaM-DTI2 (S-2238 or S-2366); type: biochemical; parameters: with a certain fixed concentration of α-thrombin (˜0.3 nM); conditions: Ca2+ up to 5 mM
Procedure: Kinetics of thrombin-catalyzed hydrolysis of the chromogenic substrates S-2238 or S-2366 (Chromogenix) was followed by absorbance at 405 nm on a SpectraMax plate reader thermostated at 37° C. The concentration of the substrate was 400 μM. Inhibition assays were performed in the clotting buffer with a certain fixed concentration of α-thrombin (˜0.3 nM) such that linear progress curves were observed within at least 15 min in the absence of the inhibition. The total volume of the reaction mixture was 200 μl. […] Kinetics data from initial rate experiments were used to construct Lineweaver-Burke plot; i.e. the relationship of (substrate concentration)^−1 versus (initial velocity)^−1 which were analysed by linear regression with MicroCal Origin 6.0 program (MicroCal, Md.). The Ki values of the inhibitors were determined using the equation Ki=[I]/{(SLo/SL1)−1}, where [I] is the inhibitor concentration, SLo is the slope of the reaction in the absence of inhibitors, and SL1 is the slope of the reaction in the presence of the inhibitor.
Kinetics of thrombin-catalyzed hydrolysis of the chromogenic substrate S-2366 (Chromogenix) was followed by absorbance at 405 nm on a SpectraMax plate reader at 25° C. The concentration of the substrate S-2366 was 50 μM. Inhibition assays were performed in the clotting buffer with a certain fixed concentration of α-thrombin (˜0.6 nM). […]

[3] = biological target: thrombin (Homo sapiens, UniProt P00734); conditions: subject of another patent application; read-out: KI for thrombin inhibition; cited from earlier work
[4] = biological target: anti-c-myc antibody 9E10; conditions: read-out: Affinity for anti-c-myc antibody 9E10; cited from earlier work

Substance: CPHYEKVSG [ephrinB2301-309, peptide derived from the ephrinB cytoplasmic tail]
Kd [1]: 200 nM

Effect of Ca2+ on inhibition of the thrombin active site [2]: not affected
Substance: Ile-Arg-Phe-Thr-Asp-Gly-Glu-Gly-(CamCKK)-Asp-Phe-Glu-Glu-Ile-Pro-Glu-Glu-Tyr-Leu-Gln [CaM-DTI2]

Substance: WDPRPQRHNDGDFEEIPEEYLQ [SEQ. ID. NO. 18]
Ki [3]: ~17 nM and 17 nM

Substance: EQKLISEEDL [c-myc sequence]
Kd [4]: ~500 nM
